Measured values: ChEMBL document CHEMBL4837181 (Eur J Med Chem, 2020)

Key:
[1] = Stability in mouse plasma assessed as parent compound remaining measured after 2 hrs by LC-MS/MS analysis; assay type: ADME, cell-free; conditions: read-out: Stabilty
[2] = Dose normalized AUC (0 to infinity) in rat at 50 mg/kg, po measured upto 72 hrs by LC-MS/MS analysis; assay type: ADME, organism-based; conditions: in vivo
[3] = Dose normalized Cmax in rat at 50 mg/kg, po measured upto 72 hrs by LC-MS/MS analysis; assay type: ADME, organism-based; conditions: in vivo
[4] = Change in normalised AUC (infinity) in rat at 50 mg/kg, po measured upto 72 hrs by LC-MS/MS analysis; assay type: ADME, organism-based; conditions: in vivo
[5] = Stability in rat plasma assessed as parent compound remaining measured after 2 hrs by LC-MS/MS analysis; assay type: ADME, cell-free; conditions: read-out: Stabilty
[6] = Change in normalised Cmax in rat at 50 mg/kg, po measured upto 72 hrs by LC-MS/MS analysis; assay type: ADME, organism-based; conditions: in vivo
[7] = Change in Cmax in rat at 185 umol/kg, po measured upto 72 hrs by LC-MS/MS analysis; assay type: ADME, organism-based; conditions: in vivo, at 185 µmol/kg
[8] = Change in AUC(infinity) in cynomolgus monkey at 92 umol/kg, po measured after 0.083 to 48 hrs by LC-MS/MS analysis; assay type: ADME, organism-based, Macaca fascicularis; conditions: in vivo, at 92 µmol/kg, time 0.083-48 hrs
[9] = Change in Cmax in rat at 37 umol/kg, po measured upto 72 hrs by LC-MS/MS analysis; assay type: ADME, organism-based; conditions: in vivo, at 37 µmol/kg
[10] = Change in AUC(infinity) in rat at 500 umol/kg, po measured upto 72 hrs by LC-MS/MS analysis; assay type: ADME, organism-based; conditions: in vivo, at 500 µmol/kg
[11] = Change in Cmax in cynomolgus monkey at 275 umol/kg, po measured after 0.083 to 48 hrs by LC-MS/MS analysis; assay type: ADME, organism-based, Macaca fascicularis; conditions: in vivo, at 275 µmol/kg, time 0.083-48 hrs
[12] = Change in AUC(infinity) in cynomolgus monkey at 275 umol/kg, po measured after 0.083 to 48 hrs by LC-MS/MS analysis; assay type: ADME, organism-based, Macaca fascicularis; conditions: in vivo, at 275 µmol/kg, time 0.083-48 hrs
[13] = Change in AUC (infinity) in rat at 37 umol/kg, po measured upto 72 hrs by LC-MS/MS analysis; assay type: ADME, organism-based; conditions: in vivo, at 37 µmol/kg
[14] = Change in AUC(infinity) in cynomolgus monkey at 825 umol/kg, po measured after 0.083 to 48 hrs by LC-MS/MS analysis; assay type: ADME, organism-based, Macaca fascicularis; conditions: in vivo, at 825 µmol/kg, time 0.083-48 hrs
[15] = Change in Cmax in cynomolgus monkey at 825 umol/kg, po measured after 0.083 to 48 hrs by LC-MS/MS analysis; assay type: ADME, organism-based, Macaca fascicularis; conditions: in vivo, at 825 µmol/kg, time 0.083-48 hrs
[16] = Change in Cmax in rat at 500 umol/kg, po measured upto 72 hrs by LC-MS/MS analysis; assay type: ADME, organism-based; conditions: in vivo, at 500 µmol/kg
[17] = Change in Cmax in cynomolgus monkey at 92 umol/kg, po measured after 0.083 to 48 hrs by LC-MS/MS analysis; assay type: ADME, organism-based, Macaca fascicularis; conditions: in vivo, at 92 µmol/kg, time 0.083-48 hrs
[18] = Stability in human plasma assessed as parent compound remaining measured after 24 hrs by LC-MS/MS analysis; assay type: ADME, cell-free; conditions: read-out: Stabilty
[19] = Stability in human plasma assessed as parent compound remaining measured after 6 hrs by LC-MS/MS analysis; assay type: ADME, cell-free; conditions: read-out: Stabilty
[20] = Chemical stability of compound in saline assessed as compound remaining at 5 uM measured after 24 hrs by LC-MS/MS analysis; assay type: physicochemical; conditions: read-out: Stabilty
[21] = Change in normalised Cmax in rat at 10 mg/kg, po measured upto 72 hrs by LC-MS/MS analysis; assay type: ADME, organism-based; conditions: in vivo
[22] = Change in normalised AUCinfinity in rat at 10 mg/kg, po measured upto 72 hrs by LC-MS/MS analysis; assay type: ADME, organism-based; conditions: in vivo
[23] = Chemical stability of compound in PBS buffer assessed as compound remaining at pH 7.4 at 5 uM measured after 6 hrs by LC-MS/MS analysis; assay type: physicochemical; conditions: read-out: Stabilty
[24] = Dose normalized AUC (0 to infinity) in rat at 10 mg/kg, po measured upto 72 hrs by LC-MS/MS analysis; assay type: ADME, organism-based; conditions: in vivo
[25] = Chemical stability of compound in PBS buffer assessed as compound remaining at pH 7.4 at 5 uM measured after 24 hrs by LC-MS/MS analysis; assay type: physicochemical; conditions: read-out: Stabilty
[26] = Chemical stability of compound in simulated gastric fluid assessed as compound remaining at 5 uM measured after 24 hrs by LC-MS/MS analysis; assay type: ADME, physicochemical; conditions: read-out: Stabilty
[27] = Chemical stability of compound in simulated intestinal fluid assessed as compound remaining at 5 uM measured after 24 hrs by LC-MS/MS analysis; assay type: ADME, physicochemical; conditions: read-out: Stabilty
[28] = Chemical stability of compound in 0.1 N aqueous HCl buffer assessed as compound remaining at pH 1 at 5 uM measured after 1.5 hrs by LC-MS/MS analysis; assay type: physicochemical; conditions: pH 1, 1.5 h
[29] = Chemical stability of compound in simulated intestinal fluid assessed as compound remaining at 5 uM measured after 3 hrs by LC-MS/MS analysis; assay type: ADME, physicochemical; conditions: read-out: Stabilty
[30] = Chemical stability of compound in 0.1 N aqueous HCl buffer assessed as compound remaining at pH 1 at 5 uM measured after 24 hrs by LC-MS/MS analysis; assay type: physicochemical; conditions: pH 1, 24 h
[31] = Dose normalized Cmax in rat at 10 mg/kg, po measured upto 72 hrs by LC-MS/MS analysis; assay type: ADME, organism-based; conditions: in vivo
[32] = Chemical stability of compound in simulated gastric fluid assessed as compound remaining at 5 uM measured after 1.5 hrs by LC-MS/MS analysis; assay type: ADME, physicochemical; conditions: read-out: Stabilty

| Compound | remaining at 2 h [1] | AUC/dose [2] | Cmax/dose [3] | Activity [4] | remaining at 2 h [5] | Activity [6] | Activity [7] | Activity [9] | Activity [13] | other results |
| --- | --- | --- | --- | --- | --- | --- | --- | --- | --- | --- |
| Cl.Cn1cc(C[C@@H](N)C(=O)OCc2ccccc2)c2ccccc21 | 0% | 1028 µM·h | 28 µM | -22% | 0% | 4% |  |  |  |  |
| CCOC(=O)[C@@H](Cc1cn(C)c2ccccc12)NC(=O)[C@@H](N)CCSC.Cl |  |  |  |  |  |  | 152% | 21% | 13% | Activity [8]: 136%; Activity [10]: 49%; Activity [11]: 402%; Activity [12]: 393%; Activity [14]: 369%; Activity [15]: 411%; Activity [16]: 59%; Activity [17]: 305% |
| CCOC(=O)[C@@H](Cc1cn(C)c2ccccc12)NC(=O)[C@@H](N)CC(C)C.O=P(O)(O)O |  |  |  |  |  |  | 69% | 84% | 61% |  |
| CC(C)OC(=O)[C@H](N)Cc1cn(C)c2ccccc12.Cl | 0% | 1051 µM·h | 28 µM | -21% | 0% | 4% |  |  |  |  |
| Cl.Cn1cc(C[C@@H](NC(=O)[C@@H](N)CCCCN)C(=O)O)c2ccccc21 | 77% |  |  |  | 95% |  |  | 8% | -10% | remaining at 24 h [18]: 78%; remaining at 6 h [19]: 96%; remaining at 24 h, 5 µM [20]: 100%; Activity [21]: -3%; Activity [22]: 56%; remaining at 6 h, 5 µM [23]: 93%; AUC/dose [24]: 795 µM·h; remaining at 24 h, 5 µM [25]: 57%; remaining at 24 h, 5 µM [26]: 92%; remaining at 24 h, 5 µM [27]: 96%; Stabilty [28]: 89%; remaining at 3 h, 5 µM [29]: 96%; Stabilty [30]: 100%; Cmax/dose [31]: 16.7 µM; remaining at 1.5 h, 5 µM [32]: 97% |
| CCOC(=O)[C@@H](Cc1cn(C)c2ccccc12)NC(=O)[C@@H](N)CCSC.O=P(O)(O)O |  |  |  |  |  |  | 49% | 32% | 2% |  |
